Laboratory results reported in patent US8247211B2, “Glycopeptide antibiotics” (American Cyanamid Company, priority 2001, dated 2012).
In brackets after ≈: the same amount, converted by molar mass.

Key:
Assay in all cases: In vitro antibacterial evaluation: minimum inhibitory concentration (MIC), broth dilution method
Format in all cases: cell-based
Enterococcus sp. = tested on: Enterococcus sp.
Protocol: (§1) The minimum inhibitory concentration (MIC), the lowest concentration of the antibiotic which inhibits growth of the test organism, is determined by the broth dilution method using Muller-Hinton II […] (Baltimore Biological Laboratories) following the recommendations of the National Committee for Clinical Laboratory Standards [Methods for dilution antimicrobial susceptibility tests for bacteria that grow aerobically, approved standard M7-A2, National Committee for Clinical Laboratory Standards, Villanova, Pa].
(§2) An inoculum level of 5×10^5 CFU/mL, and a range of antibiotic concentrations (64-0.06 μg/mL) is used. […] The test organisms include a spectrum of Gram-positive bacteria comprised of Staphylococcus sp., Streptococcus sp. and Enterococcus sp. These organisms include recent clinical isolates that are resistant to methicillin, penicillin and/or vancomycin.

Escherichia coli = tested on: Escherichia coli
Protocol: as §1, §2

Staphylococcus sp. = conditions: broth dilution, 18 hours at 35° C.
Protocol: as §1, §2

Streptococcus sp. = tested on: Streptococcus sp.
Protocol: as §1, §2

## COc1cc(C2OCC3OC(OC4C(CO)OC(Oc5ccc(CC6NC(=O)C(C(C)c7ccccc7)NC(=O)CNC(=O)C(CO)NC(=O)C(C(O)C7CNC(=N)N7C7OC(CO)C(O)C(O)C7O)NC(=O)C(C(O)C7CNC(=N)N7)NC6=O)cc5)C(O)C4O)C(O)C(O)C3O2)ccc1[N+](=O)[O-] (stereo not drawn) [Example 153, Cyclo[glycyl-β-methylphenylalanyl-O-[4-O-[4,6-O-(3-methoxy-4-nitrobenzylidene)hexopyranosyl]hexopyranosyl]tyrosyl-3-(2-iminoimidazolidin-4-yl)seryl-3-(3-hexopyranosyl-2-iminoimidazolidin-4-yl)serylseryl]]
Enterococcus sp.; strain ATCC 29212
  MIC Enterococcus faecalis (ATCC 29212): 8 µg/mL (≈ 5.49 µM)
Enterococcus sp.; strain GC 2242
  MIC Enterococcus faecalis (GC 2242): 4 µg/mL (≈ 2.74 µM)
Enterococcus sp.; strain GC 2243
  MIC Enterococcus faecium (GC 2243): 4 µg/mL (≈ 2.74 µM)
Enterococcus sp.; strain GC 2691
  MIC Enterococcus faecalis (GC 2691): 8 µg/mL (≈ 5.49 µM)
Enterococcus sp.; strain GC 3059
  MIC Enterococcus faecalis (GC 3059): 8 µg/mL (≈ 5.49 µM)
Enterococcus sp.; strain GC 4552
  MIC Enterococcus faecalis (GC 4552): 8 µg/mL (≈ 5.49 µM)
Enterococcus sp.; strain GC 4553
  MIC Enterococcus faecalis (GC 4553): 8 µg/mL (≈ 5.49 µM)
Enterococcus sp.; strain GC 4554
  MIC Enterococcus faecalis (GC 4554): 8 µg/mL (≈ 5.49 µM)
Enterococcus sp.; strain GC 4556
  MIC Enterococcus faecium (GC 4556): 4 µg/mL (≈ 2.74 µM)
Enterococcus sp.; strain GC 4557
  MIC Enterococcus faecium (GC 4557): 2 µg/mL (≈ 1.37 µM)
Enterococcus sp.; strain GC 4558
  MIC Enterococcus avium (GC 4558): 8 µg/mL (≈ 5.49 µM)
Enterococcus sp.; strain GC 6189
  MIC Enterococcus faecalis (GC 6189): 4 µg/mL (≈ 2.74 µM)
Escherichia coli; strain ATCC 25922
  MIC Escherichia coli (ATCC 25922): 64 µg/mL (≈ 43.9 µM)
Escherichia coli; strain GC 4559
  MIC Escherichia coli (GC 4559): 64 µg/mL (≈ 43.9 µM)
Staphylococcus sp.; 5×10^5 CFU/mL
  MIC Coagulase Negative Staphylococcus (GC 4547): 1 µg/mL (≈ 0.686 µM)
  MIC Coagulase Negative Staphylococcus (GC 4548): 0.5 µg/mL (≈ 0.343 µM)
  MIC Coagulase Negative Staphylococcus (GC 4549): 0.5 µg/mL (≈ 0.343 µM)
  MIC Coagulase Negative Staphylococcus (GC 4551): 2 µg/mL (≈ 1.37 µM)
  MIC Coagulase Negative Staphylococcus (GC 6257): 0.5 µg/mL (≈ 0.343 µM)
  MIC Staphylococcus aureus (ATCC 29213): 2 µg/mL (≈ 1.37 µM)
  MIC Staphylococcus aureus (GC 1131): 2 µg/mL (≈ 1.37 µM)
  MIC Staphylococcus aureus (GC 3051): 2 µg/mL (≈ 1.37 µM)
  MIC Staphylococcus aureus (GC 3053): 4 µg/mL (≈ 2.74 µM)
  MIC Staphylococcus aureus (GC 4541): 2 µg/mL (≈ 1.37 µM)
  MIC Staphylococcus aureus (GC 4542): 2 µg/mL (≈ 1.37 µM)
  MIC Staphylococcus aureus (GC 4544): 2 µg/mL (≈ 1.37 µM)
  MIC Staphylococcus aureus (GC 4545): 2 µg/mL (≈ 1.37 µM)
  MIC Staphylococcus aureus-SMITH (GC 4543): 1 µg/mL (≈ 0.686 µM)
  MIC Staphylococcus haemolyticus (GC 4546): 1 µg/mL (≈ 0.686 µM)
Staphylococcus sp.; strain ATCC 29213
  MIC Staphylococcus aureus (ATCC 29213): 2 µg/mL (≈ 1.37 µM)
Staphylococcus sp.; strain GC 1131
  MIC Staphylococcus aureus (GC 1131): 2 µg/mL (≈ 1.37 µM)
Staphylococcus sp.; strain GC 3051
  MIC Staphylococcus aureus (GC 3051): 2 µg/mL (≈ 1.37 µM)
Staphylococcus sp.; strain GC 3053
  MIC Staphylococcus aureus (GC 3053): 4 µg/mL (≈ 2.74 µM)
Staphylococcus sp.; strain GC 4541
  MIC Staphylococcus aureus (GC 4541): 2 µg/mL (≈ 1.37 µM)
Staphylococcus sp.; strain GC 4542
  MIC Staphylococcus aureus (GC 4542): 2 µg/mL (≈ 1.37 µM)
Staphylococcus sp.; strain GC 4543
  MIC Staphylococcus aureus-SMITH (GC 4543): 1 µg/mL (≈ 0.686 µM)
Staphylococcus sp.; strain GC 4544
  MIC Staphylococcus aureus (GC 4544): 2 µg/mL (≈ 1.37 µM)
Staphylococcus sp.; strain GC 4545
  MIC Staphylococcus aureus (GC 4545): 2 µg/mL (≈ 1.37 µM)
Staphylococcus sp.; strain GC 4546
  MIC Staphylococcus haemolyticus (GC 4546): 1 µg/mL (≈ 0.686 µM)
Staphylococcus sp.; strain GC 4547
  MIC Coagulase Negative Staphylococcus (GC 4547): 1 µg/mL (≈ 0.686 µM)
Staphylococcus sp.; strain GC 4548
  MIC Coagulase Negative Staphylococcus (GC 4548): 0.5 µg/mL (≈ 0.343 µM)
Staphylococcus sp.; strain GC 4549
  MIC Coagulase Negative Staphylococcus (GC 4549): 0.5 µg/mL (≈ 0.343 µM)
Staphylococcus sp.; strain GC 4551
  MIC Coagulase Negative Staphylococcus (GC 4551): 2 µg/mL (≈ 1.37 µM)
Staphylococcus sp.; strain GC 6257
  MIC Coagulase Negative Staphylococcus (GC 6257): 0.5 µg/mL (≈ 0.343 µM)
Streptococcus sp.; strain ATCC 6301
  MIC Streptococcus pneumoniae (ATCC 6301): <0.06 µg/mL
Streptococcus sp.; strain GC 1894
  MIC Streptococcus pneumoniae (GC 1894): <0.06 µg/mL
Streptococcus sp.; strain GC 4563
  MIC Streptococcus pyogenes (GC 4563): 0.25 µg/mL (≈ 0.171 µM)
Streptococcus sp.; strain GC 4564
  MIC Streptococcus agalactiae (GC 4564): 0.5 µg/mL (≈ 0.343 µM)
Streptococcus sp.; strain GC 4565
  MIC Streptococcus pneumoniae (GC 4565): <0.06 µg/mL
